Measured values taken from patent US20060257448A1, “Resorbable polymer composition, implant and method of making implant” (The University of Zurich, priority 2005, published 2006).

Test system: MC3T3-E1 cells
Assay: Alkaline phosphatase activity (maturation) of MC3T3-E1 preosteoblastic cells
Type: cell-based
Conditions: increasing amounts of solvent (triacetin 0 to 6 mM); determined after 6 days; FIG. 2
Experimental: To compare the effect of various plasticizer regarding their osteogenetic effect to that of triacetin, MC3T3-E1 cells were grown in an alpha-modified Minimum Essential Medium (Life Technologies, Inc., Grand Island, N.Y.) containing 10% fetal calf serum (Life Technologies, Inc.), 50 μg/ml gentamycin, and 50 μg/ml ascorbic acid. To examine the action of triacetin on this cell line, 1×10^5 cells per well were plated in 6-well plates and triacetin subsequently added. Medium exchange was performed after 3 days and alkaline phosphatase (ALP) was determined according to Lowry, O. et al. [J. Biol. Chem. 207 (1954) 19-37]: p-nitrophenol liberated was converted to p-nitrophenylate by adding 400 μl of 1 M NaOH, which was quantitated by measuring the absorbance at 410 nm (epsilon=17500/mol×cm). Alkaline phosphatase activity was normalized to total protein and expressed as nmol nitrophenylate generated per min per mg protein.
MC3T3-E1 cells were treated with increasing amounts of different solvents and the effect on the maturation of MC3T3-E1 cells determined after 6 days by alkaline phosphatase activity.

| SMILES | Maturation of MC3T3-E1 cells determined by alkaline phosphatase activity |
| --- | --- |
| C[S+](C)[O-] [dimethylsulfoxide] | no positive effect |
| CCO [ethanol] | no positive effect |
| CC(=O)OCC(COC(C)=O)OC(C)=O [triacetin, 1,2,3-Triacetoxypropane] | increases in a concentration dependent manner |
| CO [methanol] | no positive effect |
| CN(C)C=O [N,N-dimethylformamide] | no positive effect |
